According to patent publication US8486654B2, “Compositions and methods for measuring 3,6-L-AHG transferase activity and 3,6-L-AHG” (Samsung Electronics Co., Ltd., priority 2010, dated 2013):

Test system: 3,6-L-AHG transferase
Experiment: Quantitative analysis of 3,6-L-AHG with the final active fraction and NADP^+ (absorbance at 339 nm)
Assay type: biochemical, Saccharophagus degradans
Conditions: 50 minute reaction, relative concentrations 1, 0.5, 0.25, 0.1 and 0.05 (1 = 20 mg/mL), FIG. 1
Method: 7.5 μl of the final active fraction obtained in Preparation Example 2, 0.1 mM of NADP^+, and 50 mM of Tris-HCl (pH 8.0) are mixed to prepare 100 μl of a composition for quantitative analysis of 3,6-L-AHG.
An amount of 3,6-L-AHG is added to various 100 μl samples of the composition for quantitative analysis of 3,6-L-AHG obtained in Preparation Example 4 to achieve dilution factors for the 3,6-L-AHG of 1, 0.5, 0.25, 0.1 and 0.05 in terms of relative concentrations. A relative 3,6-L-AHG concentration of 1 corresponds to 20 mg/mL. Reaction is carried out for 50 minutes, and then absorbance is measured at 339 nm using a microplate spectrophotometer (Bio-Tek Instruments, Inc.) according to the End-point UV method.

amount of NADPH produced versus amount of 3,6-L-AHG in the sample: linearly related
Compound: O=C[C@@H](O)[C@@H]1OC[C@H](O)[C@H]1O [3,6-L-AHG, 3,6-anhydro-L-galactose]
